Patent publication US5187157A, “Peptide boronic acid inhibitors of trypsin-like proteases” (Du Pont Merck Pharmaceutical Company, priority 1988, dated 1993)

Legend:
Human plasma kallikrein = biological target: T1, Human plasma kallikrein (Homo sapiens, UniProt P03952); test: Inhibition of Human Plasma Kallikrein; assay type: biochemical; conditions: activity remaining 10 to 20 min after initiation
T1 construct: purchased Protogen AG (Switzerland)
Procedure: (§1) In the Examples which follow, the hydrolytic activity of each enzyme is measured in both the presence and absence of inhibitor and the percent enzyme activity determined. […] A steady state is reached fairly rapidly and nears completion within 5 min. Activity is evaluated between 10-20 min after the components are mixed to insure that reaction components are at equilibrium. The lowest concentration of inhibitor tested is determined by the estimated concentration of enzyme. […] The maintenance of pseudo-first-order reaction conditions and the sensitivity of the respective assays sets the lowest limit level of inhibitor tested at 10 nM for kallikrein inhibitors and 5 nM for thrombin inhibitors.
Human plasma kallikrein was obtained from Protogen AG (Switzerland). The specific activity as described by the supplier is 15 units per mg. A unit is defined as the quantity of enzyme required to hydrolyze 1 μmole of substrate, H-(D)Pro-Phe-Arg-p-nitroanilide (Kabi S2302), per min at a substrate concentration of 0.50 mM at 25° in 50 mM potassium phosphate buffer, pH 8.0.

Human thrombin = biological target: T2, Human thrombin (Homo sapiens, UniProt P00734); test: Inhibition of Thrombin (Esterase Activity); assay type: biochemical; conditions: activity remaining 10 to 20 min after initiation
T2 construct: purchased R.Q.P. Laboratories, South Bend, IN Lot HT102
Procedure: as §1
A stock solution of thrombin was prepared in 0.010M PIPES Buffer, pH 6.0, containing 0.75 M sodium chloride. […] The initial concentration of substrate was 0.10 mM and the concentration of thrombin was 1.0 nM (based on weight).

normal human plasma [1] = test: Activated partial thromboplastin times (APTT), blood coagulation in vitro; assay type: biochemical; conditions: for Calc. Concentration 2 × APTT: approximate concentration required to increase APTT two fold
Procedure: (§2) The effectiveness of inhibitors in reactions in which they compete with natural substrates for target enzymes is measured in vitro in blood coagulation assays. Two different assays are used, the APTT (activated partial thromboplastin times) and PT (prothrombin times) assays. These assays mimic the blood clotting process in vivo. Blood coagulation occurs through either of two pathways, each consisting of a cascades of zymogen activation steps. The pathways are termed the intrinsic and the extrinsic pathways (see L. Lorand, Methods in Enzymology 45: 31-37 (1976). The intrinsic pathway is initiated by negatively charged surfaces in which plasma kallikrein, factor XII and factor […] are activated and then factors IX and X and prothrombin are activated in calcium dependent steps. Thrombin, the last protease in the cascade, hydrolyses fibrinogen to fibrin which results in clot formation. In the APTT assay, plasma components are activated by exposure to negatively charged surfaces and then clotting times are measured after calcium is added to the system. In the extrinsic pathway, tissue thromboplastin activates factor VII which then activates factor X leading to the activation of thrombin. These events are measured in the prothrombin times assay.
The effect of protease inhibitors on blood coagulation in vitro was determined by measuring their effects on two different clinical parameters, the activated partial thromboplastin times (APTT) and prothrombin times (PT). Reagents for each of these assays were supplied by General Diagnostics, Jessup MD. Stock solutions of inhibitors were prepared in […] HEPES buffer, pH 7.5, containing 0.10 M sodium chloride. For the APTT assay, the inhibitor solution (0.100 mL) was incubated with normal human plasma (0.100 mL) and automated APTT reagent (0.100 mL). After incubation for 5.0 min at 37°, calcium chloride (0.100 mL) was added and the clotting times, measured in seconds, was determined on a fibrameter. The effects of the varying concentrations of inhibitor on blood clotting times compared with the clotting times of controls run in the absence of inhibitor, are shown in Table 3.

normal human plasma [2] = test: Prothrombin times (PT), blood coagulation in vitro; assay type: biochemical; conditions: for Calc. Concentration 2 × XPT: approximate concentration required to increase PT two fold
Procedure: as §2
For PT assays, inhibitor solutions (0.100 mL) were incubated with normal human plasma (0.100 mL) for 2 min at 37°.

[3] = Stability of Inhibitors in Human Plasma As Measured By APTT; assay type: in vitro ADME; conditions: 250 nM in APTT assay
Procedure: The stability of inhibitors in plasma was determined by their ability to inhibit blood coagulation. First, a stock solutions (1.0 μM) of the inhibitors to be tested in 25 mM HEPES buffer, pH 7.5, containing 0.10 M sodium chloride were diluted 50% with normal human plasma. The mixtures were made at 0°, then aliquots (0.200 mL) were removed and incubated for 2 min at 37°. An equal volume of automated APTT reagent was added and clotting times were measured as described in Examples 111-117. The final concentration of inhibitor during the clotting assays was 250 nM. Values for compounds E and F were determined simultaneously with the Control. Values for compounds A, B and C were obtained on a different day.

Sprague Dawley CD Rats = test: In Vivo Inhibition of Croton Oil Induced Inflammation (ear swelling)
Procedure: Two solutions were prepared, the first consisting of 5% croton oil, a known inflammatory agent, in an acetone carrier (Croton Solution) and the second consisting of 5% croton oil in an acetone carrier to which 10 mg/mL of a compound of the invention was added (Compound Solution). The Croton Solution (10 μL), or alternatively the Compound Solution (10 μL), was applied to the right ear of each animal (Sprague Dawley CD Rats, 130-140 g, supplied by Charles River Labs, Inc., Wilmington, MA). […] "SE" denotes standard error.

[4] = incubation in human plasma 0.5 h
[5] = incubation in human plasma 24 h
[6] = incubation in human plasma 48 h
[7] = Table 14, dose=100 μg, essentially the same conditions

T1 sequence (P03952 391-638 limits assumed): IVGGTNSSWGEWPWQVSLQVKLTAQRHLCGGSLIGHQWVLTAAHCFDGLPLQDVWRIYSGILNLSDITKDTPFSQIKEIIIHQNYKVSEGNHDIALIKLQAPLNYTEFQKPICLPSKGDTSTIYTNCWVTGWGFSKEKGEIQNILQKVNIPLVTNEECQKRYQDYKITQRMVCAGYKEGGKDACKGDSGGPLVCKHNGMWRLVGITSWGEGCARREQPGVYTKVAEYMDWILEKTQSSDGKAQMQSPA
T1 sequence (P03952 20-390 partner limits assumed): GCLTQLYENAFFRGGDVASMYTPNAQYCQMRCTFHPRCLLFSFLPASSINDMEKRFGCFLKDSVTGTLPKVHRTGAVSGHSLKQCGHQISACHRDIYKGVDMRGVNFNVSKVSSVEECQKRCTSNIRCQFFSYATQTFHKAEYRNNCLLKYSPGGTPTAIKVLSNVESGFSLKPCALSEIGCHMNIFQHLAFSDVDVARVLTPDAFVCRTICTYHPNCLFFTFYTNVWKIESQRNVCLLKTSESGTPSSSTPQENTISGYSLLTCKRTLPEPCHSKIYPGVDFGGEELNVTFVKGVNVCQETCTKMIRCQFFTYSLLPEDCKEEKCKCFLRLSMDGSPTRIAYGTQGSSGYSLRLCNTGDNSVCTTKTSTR

SMILES	Percent Activity (Human plasma kallikrein; inhibitor 10 nM)	Percent Activity (Human thrombin; inhibitor 1000 nM)	Calc. Concentration 2 × APTT (normal human plasma [1])	Activated Partial Thromboplastin Times (normal human plasma [1]; inhibitor 50 nM)	Activated Partial Thromboplastin Times (normal human plasma [1]; inhibitor 125 nM)	Activated Partial Thromboplastin Times (normal human plasma [1]; inhibitor 200 nM)	Activated Partial Thromboplastin Times (normal human plasma [1]; inhibitor 275 nM)	Activated Partial Thromboplastin Times (normal human plasma [1]; inhibitor 350 nM)	Activated Partial Thromboplastin Times (normal human plasma [1]; inhibitor 550 nM)	Calc. Concentration 2 × XPT (normal human plasma [2])	Prothrombin Times (normal human plasma [2]; inhibitor 1000 nM)	Prothrombin Times (normal human plasma [2]; inhibitor 2000 nM)	Prothrombin Times (normal human plasma [2]; inhibitor 4000 nM)	Clotting Time ([3]; incubation in human plasma 0 h)	Clotting Time [3, 4]	Clotting Time ([3]; incubation in human plasma 1 h)	Clotting Time ([3]; incubation in human plasma 2 h)	Prothrombin Times (normal human plasma [2]; inhibitor 500 nM)	Prothrombin Times (normal human plasma [2]; inhibitor 750 nM)	Percent Inhibition (Sprague Dawley CD Rats; [7])	other results
CC(=O)NC(Cc1ccccc1)C(=O)NC(CCCNC(=N)N)B1OC2CC3CC(C3(C)C)C2(C)O1.Cl (centres unmarked) [Compound F, Ac-Phe-boroArg-C10 H16.HCl]	48%	53%	325 nM	35 s	35.2 s	36.7 s	44.8 s	58.2 s	144.2 s	2500 nM	16.2 s	20.8 s	51.5 s	76.3 s	76.4 s	76.7 s	79.6 s	–	–	–	Clotting Time ([3]; incubation in human plasma 3 h): 77.8 s; Clotting Time ([3]; incubation in human plasma 4 h): 81.8 s; Clotting Time ([3]; incubation in human plasma 5 h): 80.8 s; Clotting Time ([3]; incubation in human plasma 6 h): 79.3 s; Clotting Time [3, 5]: 73.9 s; Clotting Time [3, 6]: 49.3 s; Mean Right ear Wt. (Sprague Dawley CD Rats; 100 μg/ear with 5% croton oil, topical, 1 h): 18.9 mg; Mean Swelling (mg ± SE) (Sprague Dawley CD Rats; 100 μg/ear with 5% croton oil, topical, 1 h, right minus left ear weight): 2.3 ± 0.7 mg; Percent Inhibition (Sprague Dawley CD Rats; Table 13, 100 μg/ear with 5% croton oil, topical, 1 h): 79%
Br.CC(C)(C)OC(=O)NC(Cc1ccccc1)C(=O)NC(Cc1ccccc1)C(=O)NC(CCCSC(=N)N)B1OC2CC3CC(C3(C)C)C2(C)O1 (stereo not drawn) [Compound D, Boc-(D)Phe-Phe-boroIrg-C10 H16.HBr]	2%	–	370 nM	35.8 s	45.2 s	46.2 s	60.7 s	75.7 s	94.8 s	1200 nM	19.9 s	23.4 s	49.2 s	–	–	–	–	15.7 s	17.2 s	93%	Percent Activity (Human thrombin; inhibitor 5 nM): 48%
CC(C)(C)OC(=O)N[C@H](Cc1ccccc1)C(=O)N[C@@H](Cc1ccccc1)C(=O)N[C@@H](CCCNC(=N)N)B1OC2CC3CC(C3(C)C)C2(C)O1.O=S(=O)(O)c1ccccc1 (stereo partly drawn) [E, Boc-(D)Phe-Phe-boroArg-C10 H16.benzene sulfonic acid]	5.2%	–	375 nM	36.8 s	40.5 s	43.6 s	52.8 s	54.8 s	61.3 s	2600 nM	29.3 s	39 s	70.8 s	63.2 s	73.2 s	66.2 s	67.7 s	19.8 s	22 s	82%	Percent Activity (Human thrombin; inhibitor 10 nM): 32%; Clotting Time ([3]; incubation in human plasma 3 h): 61.7 s; Clotting Time ([3]; incubation in human plasma 4 h): 58.2 s; Clotting Time ([3]; incubation in human plasma 5 h): 61.3 s; Clotting Time ([3]; incubation in human plasma 6 h): 57.3 s; Clotting Time [3, 5]: 64.7 s; Clotting Time [3, 6]: 58.7 s
Br.CC(=O)NC(Cc1ccccc1)C(=O)NC(CCCSC(=N)N)B1OC2CC3CC(C3(C)C)C2(C)O1 (centres unmarked) [G, Ac-Phe-boroIrg-C10 H16.HBr]	–	64%	625 nM	35.2 s	36.2 s	39.3 s	58.2 s	66.7 s	98.4 s	1200 nM	19.7 s	43.6 s	–	–	–	–	–	13.7 s	14.9 s	69%	Percent Activity (Human plasma kallikrein; inhibitor 50 nM): 17%
